Experiment in all cases: relative viability (nuclei count vs DMSO), 5 days (fraction); higher = more cells survive
Compound in assay [1]: CCN(CC)CCNC(=O)c1c(C)[nH]c(/C=C2\C(=O)Nc3ccc(F)cc32)c1C [Sunitinib]
In short, it runs like this:
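Lung cancer cell lines received five library-drug doses (not always all listed) spaced by √10, pinned on vehicle-anchored 1536-well plates after an overnight stay at 37 °C. Five days later, with no medium change, nuclei were Hoechst-stained, imaged at 4× and counted with MetaXpress. Viability is treated-well nuclei relative to vehicle-well nuclei, as a median across plates. Passing plates had control CV below 25% and at least one doubling.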

Compound in assay [2]: CCN(CC)CCNC(=O)c1c(C)[nH]c(/C=C2\C(=O)Nc3ccc(F)cc32)c1C [Sunitinib] + CC1(C)CCC(c2ccc(Cl)cc2)=C(CN2CCN(c3ccc(C(=O)NS(=O)(=O)c4ccc(N[C@H](CCN5CCOCC5)CSc5ccccc5)c(S(=O)(=O)C(F)(F)F)c4)cc3)CC2)C1 [Navitoclax] (partner 0.5 µM)
In short, it runs like this: (§1)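 The day after seeding in 1536-well plates, lung cancer cell lines were treated by pin tool with a single drug, or with a fixed anchor-drug dose together with five library-drug doses (not always all listed) in √10 steps. After 5 days, a combined fix-and-stain solution (final 0.05% Triton X-100, 1% formaldehyde, 1 ug/ml Hoechst) was added. Nuclei counted on 4× images gave relative viability as treated counts over vehicle counts, reported as the median of duplicate plates.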

Compound in assay [3]: CCN(CC)CCNC(=O)c1c(C)[nH]c(/C=C2\C(=O)Nc3ccc(F)cc32)c1C [Sunitinib] + Cc1cc(Nc2cc(N3CCN(C)CC3)nc(Sc3ccc(NC(=O)C4CC4)cc3)n2)n[nH]1 [Tozasertib] (partner 0.1 µM)
In a few lines: as §1

Compound in assay [4]: CCN(CC)CCNC(=O)c1c(C)[nH]c(/C=C2\C(=O)Nc3ccc(F)cc32)c1C [Sunitinib] + N=C(N)NC(=N)NCCc1ccccc1 [Phenformin] (partner 250 µM)
In a few lines:
as §1

In the case of COR-L 105, the relative viability amounted to 0.876 in assay [1] (0.02 µM); 1.05 in assay [1] (0.06325 µM); 0.952 in assay [1] (0.2 µM); 0.889 in assay [1] (2 µM); 0.752 in assay [2] (first compound 0.02 µM); 0.868 in assay [2] (first compound 0.06325 µM). Further, the relative viability came out at 0.832 in assay [2] (first compound 0.2 µM); 0.921 in assay [2] (first compound 0.6325 µM); 0.959 in assay [2] (first compound 2 µM); 0.365 in assay [3] (first compound 0.02 µM); 0.378 in assay [3] (first compound 0.06325 µM); 0.371 in assay [3] (first compound 0.2 µM). Moreover, the relative viability is 0.401 in assay [3] (first compound 0.6325 µM); 0.41 in assay [3] (first compound 2 µM); 0.415 in assay [4] (first compound 0.02 µM); 0.544 in assay [4] (first compound 0.06325 µM); 0.496 in assay [4] (first compound 0.2 µM); 0.49 in assay [4] (first compound 0.6325 µM). Also, the relative viability in assay [4] (first compound 2 µM) was determined as 0.471.
Turning to ChaGo-K-1, the relative viability in assay [1] (0.02 µM) is 0.987; in assay [1] (0.06325 µM), 1.01; in assay [1] (0.2 µM) it was 1.04; in assay [1] (0.6325 µM) it was 1.06; in assay [1] (2 µM), 1.04; in assay [2] (first compound 0.02 µM), 0.911. The relative viability stood at 1.02 in assay [2] (first compound 0.06325 µM); 0.978 in assay [2] (first compound 0.2 µM); 0.914 in assay [2] (first compound 0.6325 µM); 0.936 in assay [2] (first compound 2 µM); 0.211 in assay [3] (first compound 0.02 µM); 0.209 in assay [3] (first compound 0.06325 µM). Further, the relative viability came to 0.209 in assay [3] (first compound 0.2 µM); 0.237 in assay [3] (first compound 0.6325 µM); 0.191 in assay [3] (first compound 2 µM); 0.409 in assay [4] (first compound 0.02 µM); 0.543 in assay [4] (first compound 0.06325 µM); 0.508 in assay [4] (first compound 0.2 µM). Further, the results for the relative viability in assay [4] (first compound 0.6325 µM) and in assay [4] (first compound 2 µM) were 0.516 and 0.488, respectively.
Take EKVX: the relative viability in assay [1] (0.02 µM) turned out to be 0.974; in assay [1] (0.06325 µM), 1.01; in assay [1] (0.2 µM), 1.14; in assay [1] (0.6325 µM), 1.12; in assay [1] (2 µM), 1; in assay [2] (first compound 0.02 µM), 0.608. The relative viability in assay [2] (first compound 0.06325 µM) worked out at 0.595; in assay [2] (first compound 0.2 µM) it was 1.13; in assay [2] (first compound 2 µM), 0.968; in assay [3] (first compound 0.02 µM), 0.411; in assay [3] (first compound 0.06325 µM) it was 0.39; in assay [3] (first compound 0.2 µM) it was 0.476. In addition, the relative viability in assay [3] (first compound 0.6325 µM) was found to be 0.459; in assay [3] (first compound 2 µM) it was 0.366; in assay [4] (first compound 0.02 µM), 0.242; in assay [4] (first compound 0.06325 µM), 0.234; in assay [4] (first compound 0.2 µM), 0.236; in assay [4] (first compound 0.6325 µM), 0.256. Also, the relative viability in assay [4] (first compound 2 µM) stood at 0.248.
In the case of EMC-BAC-2, the relative viability is 0.935 in assay [1] (0.02 µM); 1.11 in assay [1] (0.06325 µM); 1.18 in assay [1] (0.2 µM); 1.01 in assay [1] (0.6325 µM); 1.07 in assay [1] (2 µM); 1.15 in assay [2] (first compound 0.02 µM). For the same cell line, the relative viability in assay [2] (first compound 0.2 µM) was 1.31; in assay [2] (first compound 0.6325 µM) it was 1.09; in assay [2] (first compound 2 µM) it was 1.22; in assay [3] (first compound 0.02 µM), 0.264; in assay [3] (first compound 0.06325 µM), 0.297; in assay [3] (first compound 0.2 µM), 0.308. Further, the relative viability turned out to be 0.289 in assay [3] (first compound 0.6325 µM); 0.332 in assay [3] (first compound 2 µM); 0.489 in assay [4] (first compound 0.02 µM); 0.566 in assay [4] (first compound 0.06325 µM); 0.595 in assay [4] (first compound 0.2 µM); 0.559 in assay [4] (first compound 0.6325 µM). Also, in assay [4] (first compound 2 µM), the relative viability turned out to be 0.543.

The values are drawn from the supplement of paper PMC10307832.
